Assay results published in patent US12398141B2 (SHANGHAI SYNERGY PHARMACEUTICAL SCIENCES CO., LTD, priority 2019, dated 2025).

Legend:
JAK3 = JAK3 (Homo sapiens (Human), UniProt P52333); experiment: JAK3 LANCE Ultra kinase assay; assay type: biochemical; details: 4 uM ATP
Sprague-Dawley (SD) mice = experiment: Concanavalin-induced paw swelling in mice; assay type: in vivo; details: 10 mg/kg intragastric; for Paw swelling rate_1 h (%): 1 h; for Paw swelling rate_2 h (%): 2 h; for Paw swelling rate_4 h (%): 4 h; for Paw swelling rate_6 h (%): 6 h
Method: The inhibiting effects of compounds H13, H14, H09, H11 and compounds of Example 12 on paw swelling in […] were determined after intragastric administration by using Sprague-Dawley (SD) […] (ShanghaiSippr-BK laboratory animal Co. Ltd.), aged 6-7 weeks and weighing 160-180 g as test animals. The anti-inflammatory pharmacodynamics characteristic of the compounds of the invention was discussed.
A certain amount of compounds were taken and dissolved in 4% Tween 80/0.5% hydroxy propyl methyl cellulose solution.
Mice were given compounds H01, H07, H11, H12, H14, H15, H22, H25, H29, H30, H33, H39, and H44 and the positive drug indomethacin (Diamond Reagent Co., Ltd., China) by intragastric administration at the dosages shown in the table below and 0.1 ml 0.03% (W/V) concanavalin was injected subcutaneously into the plantar 0.5 h later. A paw volume was measured with a paw swelling meter before modeling and 1 h, 2 h, 4 h and 6 h after modeling. According to the formula: paw swelling rate=(paw volume after administration−basic paw volume)/basic paw volume×100, the inhibiting effect of the compounds on paw volume was calculated. The basic paw volume was a paw volume before administration.

JAK1 = JAK1 (Homo sapiens (Human), UniProt P23458); experiment: JAK1 LANCE Ultra kinase assay; assay type: biochemical; details: for IC50: 38 uM ATP; for JAK2/JAK1: ratio of IC50 JAK2 to IC50 JAK1
Chain of JAK1 (P23458 whole entry): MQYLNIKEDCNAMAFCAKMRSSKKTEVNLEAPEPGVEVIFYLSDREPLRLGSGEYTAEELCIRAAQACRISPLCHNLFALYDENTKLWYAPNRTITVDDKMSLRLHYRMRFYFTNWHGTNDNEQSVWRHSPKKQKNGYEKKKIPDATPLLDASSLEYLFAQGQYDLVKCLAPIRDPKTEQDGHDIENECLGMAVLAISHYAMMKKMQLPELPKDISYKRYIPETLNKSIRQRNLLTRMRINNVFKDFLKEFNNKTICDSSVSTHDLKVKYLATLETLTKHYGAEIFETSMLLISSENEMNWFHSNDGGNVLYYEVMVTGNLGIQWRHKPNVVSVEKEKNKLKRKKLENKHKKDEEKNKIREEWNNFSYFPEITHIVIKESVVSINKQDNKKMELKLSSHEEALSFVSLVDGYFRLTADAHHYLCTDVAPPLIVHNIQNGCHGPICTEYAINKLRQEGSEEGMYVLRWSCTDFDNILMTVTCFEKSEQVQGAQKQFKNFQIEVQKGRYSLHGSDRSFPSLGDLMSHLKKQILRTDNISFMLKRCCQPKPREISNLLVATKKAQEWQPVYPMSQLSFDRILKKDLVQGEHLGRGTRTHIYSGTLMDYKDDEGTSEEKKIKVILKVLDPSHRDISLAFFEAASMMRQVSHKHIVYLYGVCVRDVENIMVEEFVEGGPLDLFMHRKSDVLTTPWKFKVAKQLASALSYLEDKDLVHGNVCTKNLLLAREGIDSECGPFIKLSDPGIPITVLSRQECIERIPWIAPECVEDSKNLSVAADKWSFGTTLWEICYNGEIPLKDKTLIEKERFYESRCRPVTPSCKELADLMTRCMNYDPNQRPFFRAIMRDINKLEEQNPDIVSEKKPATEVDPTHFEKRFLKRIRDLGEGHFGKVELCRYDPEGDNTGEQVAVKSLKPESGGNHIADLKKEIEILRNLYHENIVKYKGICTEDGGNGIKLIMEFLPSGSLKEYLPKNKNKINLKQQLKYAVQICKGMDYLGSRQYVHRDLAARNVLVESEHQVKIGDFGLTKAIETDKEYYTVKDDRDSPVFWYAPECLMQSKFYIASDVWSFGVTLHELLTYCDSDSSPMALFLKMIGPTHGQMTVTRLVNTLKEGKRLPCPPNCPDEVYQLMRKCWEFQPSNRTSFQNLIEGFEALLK
Outline: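 JAK1 preincubated with compound 10 min at room temperature, then ULight-JAK-1 peptide/ATP added for 90 min at room temperature; stopped with EDTA, Eu-W1024 anti-phosphotyrosine TR-FRET read after 60 min. Inhibition normalised to DMSO and blank wells; IC50 from curve fit.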

[1] = Collagen-induced rheumatoid arthritis model, clinical score; assay type: in vivo, mice; parameters: key: 0-4 per limb by redness/deformity, max 16 per animal; details: clinical score 0-16 per animal, Day 0 (before modeling)
Method: (§1) The effects of compounds H07, H12, H14, H25, H30, H39 and H44 on rheumatoid arthritis in […] were determined after long term administration by using Lewis male […] (Beijing Vital River Laboratory Animal Technology Co., Ltd.), aged 5-6 weeks and weighing […] as test animals. The anti-inflammatory pharmacodynamics characteristic of the compounds of the invention was discussed.
(§2) A certain amount of compounds were taken and dissolved in 4% Tween 80/0.5% hydroxy propyl methyl cellulose solution. A volume of intragastric administration of mice was 10 ml/kg.
(§3) Collagen type II was dissolved in 0.1M acetic acid and kept in a 4° C. refrigerator overnight at a collagen concentration of 4 mg/mL. Same volume of incomplete Freund adjuvant (Sigma, USA) was added in collagen before injection in test, which was emulsified high speed homogenizer (30000 rpm) to prepare a collagen emulsion. This procedure was carried out on ice.
(§4) Mice were immunologically injected with the collagen emulsion by two separate times for modeling on days 1 and 7 (the day before modeling was day 0). 0.1 ml of collagen emulsion prepared as above was injected intradermally into a root of tail at a single point, and 0.2 ml was injected intradermally into back at two points. The animals were subjected to clinical score and paw volume test from day 10 to day 14 after modeling. Animals successfully modeled (average clinical score≥3 points/animal) were assigned to each administration group, with each group included 10 animals. They were administrated intragastrically with above compounds or resolvents at a dosage of 10 mg/kg twice/day, and administrated intragastrically with methotrexate (2 mg/kg, Sigma, USA) every three days, until day 27. During the test, the […] were scored twice a week, and the paw volume and body weight were measured twice.
(§5) According to the different degrees of lesions (redness and joint deformation), the scores were ranged from 0 to 4 points, with the highest score of 4 points for each limb and 16 points for each animal. Scoring standards are as follows: 0, no redness; 1, slight redness on mid legs (tarsals) or ankles; 2, slight redness from ankles to mid legs (tarsals); 3, medium redness from ankles to tarsometatarsal joints; 4, severe redness from toes or fingers to ankles or wrist joints.

Lewis male mice = experiment: as above; assay type: in vivo; parameters: key: 0-4 per limb by redness/deformity, max 16 per animal; details: clinical score 0-16 per animal, compounds 10 mg/kg twice/day, methotrexate 2 mg/kg every three days
Method: as §1, §2, §3, §4, §5

JAK2 = JAK2 (Homo sapiens (Human), UniProt O60674); experiment: JAK2 LANCE Ultra kinase assay; assay type: biochemical; details: 12 uM ATP
Chain of JAK2 (O60674 whole entry): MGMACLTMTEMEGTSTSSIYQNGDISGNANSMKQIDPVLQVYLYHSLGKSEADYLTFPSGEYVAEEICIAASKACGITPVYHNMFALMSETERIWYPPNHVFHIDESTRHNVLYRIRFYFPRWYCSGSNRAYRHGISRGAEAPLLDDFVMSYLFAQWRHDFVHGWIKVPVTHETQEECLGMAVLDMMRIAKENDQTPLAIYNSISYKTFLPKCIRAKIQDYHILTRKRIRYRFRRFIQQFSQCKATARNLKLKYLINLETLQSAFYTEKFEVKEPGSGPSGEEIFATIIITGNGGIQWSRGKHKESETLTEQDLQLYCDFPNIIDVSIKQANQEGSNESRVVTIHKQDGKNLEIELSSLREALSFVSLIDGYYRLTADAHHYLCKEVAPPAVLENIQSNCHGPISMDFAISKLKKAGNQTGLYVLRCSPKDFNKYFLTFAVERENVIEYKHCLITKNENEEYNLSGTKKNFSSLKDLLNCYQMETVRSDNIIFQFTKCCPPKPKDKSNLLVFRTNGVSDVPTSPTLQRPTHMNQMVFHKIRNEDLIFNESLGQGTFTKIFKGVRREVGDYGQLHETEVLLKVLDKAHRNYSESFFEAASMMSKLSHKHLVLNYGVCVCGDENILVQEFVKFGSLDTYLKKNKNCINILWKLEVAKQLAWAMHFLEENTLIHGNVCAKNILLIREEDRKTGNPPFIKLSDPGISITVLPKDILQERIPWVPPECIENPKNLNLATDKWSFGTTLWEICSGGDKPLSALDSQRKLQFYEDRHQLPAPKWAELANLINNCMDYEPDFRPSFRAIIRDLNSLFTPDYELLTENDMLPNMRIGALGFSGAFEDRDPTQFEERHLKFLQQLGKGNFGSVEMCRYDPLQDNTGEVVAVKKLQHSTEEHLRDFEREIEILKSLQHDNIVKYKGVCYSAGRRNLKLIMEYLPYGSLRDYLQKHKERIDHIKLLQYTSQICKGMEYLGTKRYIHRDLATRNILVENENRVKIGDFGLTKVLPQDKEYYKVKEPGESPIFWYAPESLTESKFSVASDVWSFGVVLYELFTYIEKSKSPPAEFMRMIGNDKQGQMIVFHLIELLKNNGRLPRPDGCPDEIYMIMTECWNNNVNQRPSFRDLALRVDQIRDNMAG

Chain of JAK3 (P52333 whole entry): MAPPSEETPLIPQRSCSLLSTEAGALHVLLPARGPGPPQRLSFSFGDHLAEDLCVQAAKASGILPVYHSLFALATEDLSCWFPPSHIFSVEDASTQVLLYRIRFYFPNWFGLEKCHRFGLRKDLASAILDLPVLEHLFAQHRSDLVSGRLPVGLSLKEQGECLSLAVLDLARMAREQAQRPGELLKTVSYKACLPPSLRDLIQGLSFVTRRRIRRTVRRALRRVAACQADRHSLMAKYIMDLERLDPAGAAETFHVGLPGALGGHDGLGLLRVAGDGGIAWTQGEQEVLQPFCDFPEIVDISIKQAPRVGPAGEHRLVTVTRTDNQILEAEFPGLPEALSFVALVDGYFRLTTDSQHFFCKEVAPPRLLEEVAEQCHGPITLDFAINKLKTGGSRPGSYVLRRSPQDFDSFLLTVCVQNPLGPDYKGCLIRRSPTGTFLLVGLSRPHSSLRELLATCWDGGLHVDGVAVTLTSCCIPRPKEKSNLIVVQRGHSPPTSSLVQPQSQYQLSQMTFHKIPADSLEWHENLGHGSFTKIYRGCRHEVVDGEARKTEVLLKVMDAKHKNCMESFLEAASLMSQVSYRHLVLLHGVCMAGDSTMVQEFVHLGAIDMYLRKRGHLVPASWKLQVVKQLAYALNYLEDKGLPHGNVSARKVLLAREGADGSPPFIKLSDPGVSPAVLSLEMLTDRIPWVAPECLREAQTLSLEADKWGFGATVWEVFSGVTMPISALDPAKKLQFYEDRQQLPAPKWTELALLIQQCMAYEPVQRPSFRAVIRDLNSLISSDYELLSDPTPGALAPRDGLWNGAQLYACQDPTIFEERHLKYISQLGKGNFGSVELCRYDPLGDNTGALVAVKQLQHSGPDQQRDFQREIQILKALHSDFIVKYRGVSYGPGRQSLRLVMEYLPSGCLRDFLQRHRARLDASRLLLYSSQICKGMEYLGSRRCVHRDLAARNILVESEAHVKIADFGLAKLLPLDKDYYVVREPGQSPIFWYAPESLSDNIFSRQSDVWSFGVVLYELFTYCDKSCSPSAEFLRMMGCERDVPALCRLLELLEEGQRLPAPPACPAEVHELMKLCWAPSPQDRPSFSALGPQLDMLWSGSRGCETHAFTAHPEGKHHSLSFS

SMILES	IC50 (JAK3) [nM]	Paw swelling rate_1 h (%) (Sprague-Dawley (SD) mice)	Paw swelling rate_2 h (%) (Sprague-Dawley (SD) mice)	Paw swelling rate_4 h (%) (Sprague-Dawley (SD) mice)	Paw swelling rate_6 h (%) (Sprague-Dawley (SD) mice)	IC50 (JAK1) [nM]	Score Day 0 [1]	Score Day 13 (Lewis male mice)	Score Day 14 (Lewis male mice)	Score Day 18 (Lewis male mice)	Score Day 21 (Lewis male mice)	Score Day 25 (Lewis male mice)	Score Day 27 (Lewis male mice)	IC50 (JAK2) [nM]	JAK2/JAK1 (JAK1)
N#Cc1cnc2[nH]ccc2c1N[C@H]1C[C@@H](NS(=O)(=O)CCC(F)(F)F)C1 [Compound H12, (cis)-4-{[3-(3,3,3-trifluoropropanesulfonamido)-cyclobutyl-1-yl]-amino}-1H-pyrrolo[2,3-b]pyridin-5-carbonitrile]	66	28.90 ± 2.00	23.10 ± 3.00	24.00 ± 2.90	24.00 ± 3.00	0.56	0.00 ± 0.00	3.40 ± 0.39	3.90 ± 0.61	2.90 ± 0.67	1.23 ± 0.29	0.60 ± 0.17	0.50 ± 0.14	7.63	
COc1nsc(NC(=O)N[C@H]2C[C@@H](N(C)c3c(C#N)cnc4[nH]ccc34)C2)n1 [Compound H29, (cis)-1-(3-((5-cyano-1H-pyrrolo[2,3-b]pyridin-4-yl)(methyl)amino)cyclobutyl)-3-(3-methoxy-1,2,4-thiadiazole-5-yl)urea]	60	23.70 ± 1.60	23.20 ± 2.60	32.20 ± 3.50	29.20 ± 3.50	0.36								6.8	18.89
CC(C)c1nsc(NC(=O)N2C[C@H]3C[C@H](N(C)c4c(C#N)cnc5[nH]ccc45)C[C@H]3C2)n1 [Compound H30, (3aR,5s,6aS)-4-({2-[(3-isopropyl-1,2,4-thiadiazole-5-yl)carbamoyl]-hexahydrocyclopenta[c]pyrrole-5-yl}-methyl-amino)-1H-pyrrolo[2,3-b]pyridin-5-carbonitrile]	76	24.40 ± 2.40	25.20 ± 3.40	26.00 ± 2.30	24.50 ± 2.30	0.57	0.00 ± 0.00	3.20 ± 0.37	4.00 ± 0.45	3.50 ± 0.50	2.83 ± 0.29	2.00 ± 0.27	1.20 ± 0.27	6.4	11.23
CN(c1c(C#N)cnc2[nH]ccc12)[C@H]1C[C@@H]2CN(C(=O)Nc3nc(OCC(C)(C)N)ns3)C[C@@H]2C1 [Compound H44, (3aR,5s,6aS)-5-((5-cyano-1H-pyrrolo[2,3-b]pyridin-4-yl)(methyl)amino)-N-(3-(2-amino-2-methyl-propoxy)-1,2,4-thiadiazole-5-yl)hexahydrocyclopentadiene[c]pyrrole-2(1H)-carboxamide]	80	23.80 ± 1.60	24.80 ± 2.50	24.20 ± 2.90	23.50 ± 2.90	0.67	0.00 ± 0.00	2.80 ± 0.45	3.40 ± 0.27	2.13 ± 0.21	1.70 ± 0.10	0.83 ± 0.48	0.64 ± 0.34	15.6	23.28
C[C@@H]1CCN(C(=O)CC#N)C[C@@H]1N(C)c1c(C#N)cnc2[nH]ccc12 [Compound H11, 4-{[(3R,4R)-1-(2-cyanoacetyl)-4-methylpiperidin-3-yl]-methyl-amino}-1H-pyrrolo[2,3-b]pyridin-5-carbonitrile]	77	23.50 ± 2.40	25.80 ± 3.30	31.00 ± 2.10	32.00 ± 2.10	1.28								9.86	7.70
CN(C)c1nsc(NC(=O)N2C[C@H]3C[C@H](N(C)c4c(C#N)cnc5[nH]ccc45)C[C@H]3C2)n1 [Compound H33, (3aR,5s,6aS)-4-({2-[(3-dimethylamino-1,2,4-thiadiazole-5-yl)carbamoyl]-hexahydrocyclopenta[c]pyrrole-5-yl}-methyl-amino)-1H-pyrrolo[2,3-b]pyridin-5-carbonitrile]	40	27.80 ± 2.00	29.20 ± 3.10	30.10 ± 2.90	30.10 ± 2.90	0.65								5.7	8.77
CN(c1c(C#N)cnc2[nH]ccc12)[C@H]1C[C@@H](NS(=O)(=O)CCC(F)(F)F)C1 [Compound H15, (cis)-4-{[3-(3,3,3-trifluoropropanesulfonamide)-cyclobutyl-1-yl]-methyl-amino}-1H-pyrrolo[2,3-b]pyridin-5-carbonitrile]	244	24.50 ± 2.50	25.90 ± 3.40	32.00 ± 2.30	31.00 ± 2.30	2.36								16.6	7.03
CN(c1c(C#N)cnc2[nH]ccc12)[C@H]1C[C@@H]2CN(C(=O)NCC(F)(F)F)C[C@@H]2C1 [Compound H22, (3aR,5s,6aS)-4-({2-[(2,2,2-trifluoroethyl)-carbamoyl]-hexahydrocyclopenta[c]pyrrole-5-yl}-methyl-amino)-1H-pyrrolo[2,3-b]pyridin-5-carbonitrile]	58	29.80 ± 2.00	29.10 ± 3.00	31.00 ± 2.90	31.00 ± 2.90	0.35								5.8	16.40
COc1nsc(NC(=O)N2C[C@H]3C[C@H](N(C)c4c(C#N)cnc5[nH]ccc45)C[C@H]3C2)n1 [Compound H07, (3aR,5s,6aS)-4-({2-[(3-methoxy-1,2,4-thiadiazole-5-yl)carbamoyl]-hexahydrocyclopenta[c]pyrrole-5-yl}-methyl-amino)-1H-pyrrolo[2,3-b]pyridin-5-carbonitrile]		25.20 ± 2.10	32.10 ± 1.70	22.30 ± 4.20	21.30 ± 4.20		0.00 ± 0.00	3.10 ± 056	4.10 ± 0.41	3.10 ± 0.30	3.00 ± 0.11	2.00 ± 0.25	1.00 ± 0.17		
